The test has as its target T1, SARM1 (50-724) (Homo sapiens, UniProt Q6SZW1).
T1 construct: Purified SARM1 (50-724) with a final concentration of 2 nM was pre-incubated with a test compound
T1 sequence (Q6SZW1 50-724): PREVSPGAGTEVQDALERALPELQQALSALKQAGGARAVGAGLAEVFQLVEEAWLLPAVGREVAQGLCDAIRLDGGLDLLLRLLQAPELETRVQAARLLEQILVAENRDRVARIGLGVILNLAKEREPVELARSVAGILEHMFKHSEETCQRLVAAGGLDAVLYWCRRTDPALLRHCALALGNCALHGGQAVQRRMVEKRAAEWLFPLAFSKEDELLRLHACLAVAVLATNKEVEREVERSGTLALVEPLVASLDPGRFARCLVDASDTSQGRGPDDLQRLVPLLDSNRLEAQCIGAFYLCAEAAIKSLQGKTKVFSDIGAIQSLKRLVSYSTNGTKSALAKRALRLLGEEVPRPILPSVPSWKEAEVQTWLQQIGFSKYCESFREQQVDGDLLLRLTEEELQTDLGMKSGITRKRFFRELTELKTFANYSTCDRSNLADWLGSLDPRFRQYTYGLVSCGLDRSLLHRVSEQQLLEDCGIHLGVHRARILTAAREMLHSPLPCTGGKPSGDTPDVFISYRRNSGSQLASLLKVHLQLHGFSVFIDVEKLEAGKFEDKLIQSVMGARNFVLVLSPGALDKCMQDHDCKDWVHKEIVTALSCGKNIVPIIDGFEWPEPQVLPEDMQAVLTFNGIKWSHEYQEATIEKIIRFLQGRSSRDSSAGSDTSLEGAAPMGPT
As to the kind of experiment: SARM1 (50-724) enzymatic assay (LC-MS/MS). The test is classed as biochemical. To be noted: Purified SARM1 (50-724) 2 nM, NMN as activator, NAD+ as substrate, 1 h at room temperature, read-out: IC50 (SARM1 inhibitory activity). Summed up:
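Human SARM1 (50-724), 2 nM, pre-incubated 15 min at room temperature with compound in Dulbecco's PBS. Reaction started with 200 µM NMN (activator) plus […] NAD^+ substrate, run 1 h at room temperature, quenched with 70% acetonitrile. Turnover quantified by LC-MS/MS; IC50 reported.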

Where only a bound is given, the exact number is not on record here.

On to `Fc1cccc(-n2nccc2-c2nc3cc(C(F)(F)F)ccc3[nH]2)c1Cl` [Compound 443, 2-(1-(2-chloro-3-fluorophenyl)-1H-pyrazol-5-yl)-5-(trifluoromethyl)-1H-benzo[d]imidazole], for which the IC50 – broadly, the concentration at which inhibition is half-maximal – was 0.1 to 0.5 µM.
Next, `CS(=O)(=O)Cc1nnc(-c2nc3cc(C4CC4)cc(F)c3[nH]2)n1-c1cnccc1C(F)(F)F` [Compound 283, 5-cyclopropyl-7-fluoro-2-(5-((methylsulfonyl)methyl)-4-(4-(trifluoromethyl)pyridin-3-yl)-4H-1,2,4-triazol-3-yl)-1H-benzo[d]imidazole]: ≤ 0.1 µM.
In the case of `CS(=O)(=O)NCc1nnc(-c2nc3cc(C(F)(F)F)ccc3[nH]2)n1-c1cccc(Cl)c1Cl` [Compound 139, N-((4-(2,3-dichlorophenyl)-5-(5-(trifluoromethyl)-1H-benzo[d]imidazol-2-yl)-4H-1,2,4-triazol-3-yl)methyl)methanesulfonamide], the IC50 was ≤ 0.1 µM.
Next, `CC1CCN(c2cc(F)c3[nH]c(-c4nncn4-c4cnccc4C(F)(F)F)nc3c2)C1` (centres unmarked) [Compound 436, 4-fluoro-6-(3-methylpyrrolidin-1-yl)-2-(4-(4-(trifluoromethyl)pyridin-3-yl)-4H-1,2,4-triazol-3-yl)-1H-benzo[d]imidazole]: ≤ 0.1 µM; `Fc1ccc(-n2cnnc2-c2nc3cc(C(F)(F)F)ccc3[nH]2)c(Cl)c1F` [Example 120]: ≤ 0.1 µM; `Fc1c(C2CC2)cc(F)c2[nH]c(-c3nncn3-c3cnccc3C(F)(F)F)nc12` [Compound 300, 5-cyclopropyl-4,7-difluoro-2-(4-(4-(trifluoromethyl)pyridin-3-yl)-4H-1,2,4-triazol-3-yl)-1H-benzo[d]imidazole]: ≤ 0.1 µM.
To `Cc1ccc2[nH]c(-c3ncccc3-c3cccc(Cl)c3Cl)nc2c1` [Example 21] belongs > 1 µM; to `FC(F)(F)c1ccc2[nH]c(-c3nccn3-c3cccc(Cl)c3Cl)nc2c1` [Example 57], 0.1 to 0.5 µM; to `FC(F)(F)c1ccc2[nH]c(-c3nnc(COC4COC4)n3-c3cccc(Cl)c3Cl)nc2c1` [Example 124], ≤ 0.1 µM.
To `O=c1cc(-c2nc3cc(C(F)(F)F)ccc3[nH]2)c(-c2cccc(Cl)c2Cl)c[nH]1` [Example 40, 5-(2,3-dichlorophenyl)-4-[5-(trifluoromethyl)-1H-benzimidazol-2-yl]-1H-pyridin-2-one] belongs ≤ 0.1 µM.
As for `O=c1[nH]nc(-c2nc3cc(C(F)(F)F)ccc3[nH]2)n1-c1cccc(Cl)c1Cl` [Compound 36, 4-(2,3-dichlorophenyl)-5-(5-(trifluoromethyl)-1H-benzo[d]imidazol-2-yl)-2,4-dihydro-3H-1,2,4-triazol-3-one], the IC50 lay within 0.1 to 0.5 µM.
To `Fc1cc(C(F)(F)c2ccncc2)cc2nc(-c3nncn3-c3cnccc3C(F)(F)F)[nH]c12` [Compound 464, 6-(difluoro(pyridin-4-yl)methyl)-4-fluoro-2-(4-(4-(trifluoromethyl)pyridin-3-yl)-4H-1,2,4-triazol-3-yl)-1H-benzo[d]imidazole] belongs ≤ 0.1 µM; to `Fc1cc(C2CC2COC(F)F)cc2nc(-c3nncn3-c3cnccc3C(F)(F)F)[nH]c12` (centres unmarked) [Compound 440, 5-(2-((difluoromethoxy)methyl)cyclopropyl)-7-fluoro-2-(4-(4-(trifluoromethyl)-pyridin-3-yl)-4H-1,2,4-triazol-3-yl)-1H-benzo[d]imidazole], ≤ 0.1 µM.
To `FC(F)(F)c1ccc2[nH]c(-c3nncn3-c3cnccc3C(F)(F)F)c(-c3ccnnc3)c2c1` [Compound 427, 3-pyridazin-4-yl-5-(trifluoromethyl)-2-[4-[4-(trifluoromethyl)-3-pyridyl]-1,2,4-triazol-3-yl]-1H-indole] belongs ≤ 0.1 µM; to `NC(=O)C(F)(F)c1ccc2[nH]c(-c3nncn3-c3ccc(F)c(F)c3Cl)nc2c1` [Compound 463, 2-(2-(4-(2-chloro-3,4-difluorophenyl)-4H-1,2,4-triazol-3-yl)-1H-benzo[d]imidazol-5-yl)-2,2-difluoroacetamide], ≤ 0.1 µM; to `Cn1ccc(C(F)(F)F)c(-n2cnnc2-c2nc3cc(C(F)(F)F)ccc3[nH]2)c1=O` [Compound 279, 1-methyl-4-(trifluoromethyl)-3-(3-(5-(trifluoromethyl)-1H-benzo[d]imidazol-2-yl)-4H-1,2,4-triazol-4-yl)pyridin-2(1H)-one], > 1 µM.
With `FC(F)Oc1ncccc1-n1cnnc1-c1nc2cc(C(F)(F)F)ccc2[nH]1` [Compound 235, 2-(4-(2-(difluoromethoxy)pyridin-3-yl)-4H-1,2,4-triazol-3-yl)-5-(trifluoromethyl)-1H-benzo[d]imidazole], the half-maximal inhibitory concentration (IC50) was ≤ 0.1 µM.
On to `Fc1cc(OCC(F)F)cc2nc(-c3nncn3-c3cnccc3C(F)(F)F)[nH]c12` [Compound 331, 5-(2,2-difluoroethoxy)-7-fluoro-2-(4-(4-(trifluoromethyl)pyridin-3-yl)-4H-1,2,4-triazol-3-yl)-1H-benzo[d]imidazole], for which the IC50 is ≤ 0.1 µM.
Take `Cc1ccc2[nH]c(-c3ncccc3C3CCCC3)nc2c1` [Compound 7, 2-(3-cyclopentylpyridin-2-yl)-5-methyl-1H-benzo[d]imidazole]: the IC50 was > 1 µM.
To `Fc1cc(N2CCC2)cc2nc(-c3nncn3-c3cnccc3C(F)(F)F)[nH]c12` [Compound 301, 5-(azetidin-1-yl)-7-fluoro-2-(4-(4-(trifluoromethyl)pyridin-3-yl)-4H-1,2,4-triazol-3-yl)-1H-benzo[d]imidazole] belongs 0.1 to 0.5 µM.
Take `Cn1ncc(Cl)c1-c1ccnnc1-c1nc2cc(C(F)(F)F)ccc2[nH]1` [Compound 399, 2-(4-(4-chloro-1-methyl-1H-pyrazol-5-yl)pyridazin-3-yl)-5-(trifluoromethyl)-1H-benzo[d]imidazole]: the IC50 was ≤ 0.1 µM.
Consider `CSc1c(Br)ccc2[nH]c(-c3nncn3-c3cccc(Cl)c3Cl)nc12` [Example 72, 5-bromo-2-(4-(2,3-dichlorophenyl)-4H-1,2,4-triazol-3-yl)-4-(methylthio)-1H-benzo[d]imidazole], for which the IC50 was 0.1 to 0.5 µM.
Next, `CCOC(=O)C1(c2ccc3[nH]c(-c4nncn4-c4cccc(Cl)c4Cl)nc3c2)CCC1` [Example 129]: ≤ 0.1 µM.
Next, `Fc1cc2[nH]c(-c3nncn3-c3cnccc3C(F)(F)F)nc2c(F)c1C1CC1` [Compound 332, 5-cyclopropyl-4,6-difluoro-2-(4-(4-(trifluoromethyl)pyridin-3-yl)-4H-1,2,4-triazol-3-yl)-1H-benzo[d]imidazole]: ≤ 0.1 µM; `Cc1cncc(-n2cnnc2-c2nc3cc(C(F)(F)F)ccc3[nH]2)c1Cl` [Example 123]: ≤ 0.1 µM; `FC(F)(F)c1ccncc1-n1cnnc1-c1nc2cc(C3CCCC3)ccc2[nH]1` [Compound 364, 5-cyclopentyl-2-(4-(4-(trifluoromethyl)pyridin-3-yl)-4H-1,2,4-triazol-3-yl)-1H-benzo[d]imidazole]: ≤ 0.1 µM.
To `FC(F)(F)Cc1ccccc1-n1cnnc1-c1nc2cc(C(F)(F)F)ccc2[nH]1` [Compound 248, 2-(4-(2-(2,2,2-trifluoroethyl)phenyl)-4H-1,2,4-triazol-3-yl)-5-(trifluoromethyl)-1H-benzo[d]imidazole] belongs > 1 µM; to `CC(F)(F)c1ccncc1-n1cnnc1-c1nc2cc(C(F)(F)F)ccc2[nH]1` [Compound 260, 2-(4-(4-(1,1-Difluoroethyl)pyridin-3-yl)-4H-1,2,4-triazol-3-yl)-5-(trifluoromethyl)-1H-benzo[d]imidazole], ≤ 0.1 µM.
Consider `COc1ncc(Cl)c(-n2cnnc2-c2nc3cc(C(F)(F)F)ccc3[nH]2)n1` [Compound 169, 2-(4-(5-chloro-2-methoxypyrimidin-4-yl)-4H-1,2,4-triazol-3-yl)-5-(trifluoromethyl)-1H-benzo[d]imidazole], for which the concentration for half-maximal inhibition (IC50) was > 1 µM.
Consider `CCS(=O)(=O)Cc1nnc(-c2nc3cc(Cl)cc(F)c3[nH]2)n1-c1cccc(F)c1Cl` [Compound 193, 5-chloro-2-(4-(2-chloro-3-fluorophenyl)-5-((ethylsulfonyl)methyl)-4H-1,2,4-triazol-3-yl)-7-fluoro-1H-benzo[d]imidazole], for which the IC50 was ≤ 0.1 µM.
Next, `Fc1c(-c2nncn2-c2cnccc2C(F)(F)F)[nH]c2ccc(C(F)(F)F)cc12` [Compound 259, 3-fluoro-5-(trifluoromethyl)-2-(4-(4-(trifluoromethyl)pyridin-3-yl)-4H-1,2,4-triazol-3-yl)-1H-indole]: ≤ 0.1 µM; `FC(F)c1nnc(-c2nc3cc(C(F)(F)F)ccc3[nH]2)n1-c1cnccc1C(F)(F)F` [Compound 306, 2-(5-(difluoromethyl)-4-(4-(trifluoromethyl)pyridin-3-yl)-4H-1,2,4-triazol-3-yl)-5-(trifluoromethyl)-1H-benzo[d]imidazole]: ≤ 0.1 µM.

These data come from patent US20260258064A1 (SIRONAX LTD., priority 2023, published 2026).
